Patent US20230201221A1, “USE OF TERPENOIDS IN THE TREATMENT OR PREVENTION OF FIBROTIC DISEASES” (ARJIL BIOTECH HOLDING COMPANY LIMITED, priority 2020, published 2023)

Key:
Type in all cases: in vivo
[1] = system: C57BL/6 mice; assay: Cisplatin-induced renal injury in mice: kidney histopathology (H&E); details: extract at 1000 mg/kg; cisplatin-stimulated mice
From the text: Kidney histopathology The anterior portion of the […] from each mouse is fixed in 10% formaldehyde phosphate buffer, embedded in paraffin, cut into 5 μm sections, and then treated with an hematoxylin and eosin (H&E) stain for histological examination under the light microscopy (Nikon, ECLIPSE, TS100, Tokyo, Japan). Images are captured with a digital camera (NIS-Elements D 2.30, SP4, Build 387) at an original magnification of 400×.
Seven-to-eight-week-old male C57BL/6 mice are obtained from the BioLASCO Taiwan Co., Ltd. (Taipei, Taiwan). The animals are housed in Plexiglas cages at a constant temperature of 22±1° C. and a relative humidity of 55±5% on a 12 h dark-light cycle for at least 2 weeks before the experiment. Animals are provided food and water ad libitum. All experimental procedures are performed according to the guidelines of the Institutional Animal Ethics Committee, and the protocol is approved by the Committee for the Purpose of Control and Supervision of Experiments on Animals.
Renal fibrosis is induced via multiple injections of low-dose cisplatin. Intraperitoneal injections of cisplatin (5 mg/kg/injection; P4394, Sigma-Aldrich, St Louis, Mo.) are performed at 0, 1, and 3 weeks, for a total of 3 injections. Mice are sacrificed at 6 weeks after the first dose of cisplatin (n=6). […]

[2] = system: ICR mice; assay: Bleomycin-induced pulmonary fibrosis in mice: body weight, lung weight, lung index
Description: Specific pathogen-free ICR mice (males) (body weights 18-22 g) were purchased from the BioLASCO Taiwan Co., Ltd. (Taipei, Taiwan). The animals were housed in Plexiglas cages at a constant temperature of 22±1° C. and a relative humidity of 55±5% on a 12 h dark-light cycle for at least 2 weeks before the experiment. Animals were provided food and water ad libitum. All experimental procedures were performed according to the guidelines of the Institutional Animal Ethics Committee, and the protocol was approved by the Committee for the Purpose of Control and Supervision of Experiments on Animals.
(§1) Mice were divided into fifth groups with 5 animals per group according to body weight: control group, BLM group, BLM+DEX group (7.5 mg/kg), BLM+ACH dosage group (50 mg/kg), and BLM+ACM dosage group (25 mg/kg), BLM+ACH dosage group (50 mg/kg), and BLM+ACM dosage group (25 mg/kg) BLM+AH dosage group (50 mg/kg), and BLM+AM dosage group (25 mg/kg) BLM+BH dosage group (50 mg/kg), and BLM+BM dosage group (25 mg/kg) BLM+CH dosage group (50 mg/kg), and BLM+CM dosage group (25 mg/kg) BLM+DH dosage group (50 mg/kg), and BLM+DM dosage group (25 mg/kg) BLM+EH dosage group (50 mg/kg), and BLM+EM dosage group (25 mg/kg) BLM. Pulmonary fibrosis (PF) was established in mice via a single intratracheal administration of BLM at 7.5 mg/kg mg/kg body weight. Different doses of samples were intragastrically administered daily for 21 days after BLM injury, and DEX was used as the positive control. Control and model groups received an equal volume of vehicle (0.9% NaCl) using the same schedule and route of administration.
Mouse body weights were recorded daily. Mice were sacrificed on the 21th day using excess chloral hydrate hydrochloride anesthesia. Blood was obtained for ELISA analyses, and whole lungs were removed and weighed. The right lungs were fixed in 10% formalin, dehydrated, and embedded in paraffin. The left lungs were used to determine hydroxyproline. The pulmonary coefficient was calculated using the following equation: lung weight/body weight×100%
1. Group I: control; 2. Group II: mice received single intraperitoneal injection of BLM (7.5 mg/kg BW) 3. Group III: single dose (ACH, 0.5 g/kg) 4. Group IV: Single dose (ACM, 1.0 g/kg) 5. […] Group VII: purified AR101-DS2 (50 mg/kg) 8. Group VIII: purified AR101-DS2 (25 mg/kg) 7. Group VII: purified AR101-DS4 (50 mg/kg) 8. Group VIII: purified AR101-DS4 (25 mg/kg) 7. […] Group VII: purified ARH013-RA1 (50 mg/kg) 8. Group VIII: purified ARH013-RA1 (25 mg/kg)

[3] = system: TNF-α, IL-1β, IL-6 and TGF-β; assay: Bleomycin-induced pulmonary fibrosis in mice: pro-inflammatory cytokines by ELISA; details: extract 1.0 g/kg; BH, DH 50 mg/kg; after BLM challenge; p<0.001
Description: as §1, with “administration. […]” for “administration.”
The serum concentration of the pro-inflammatory cytokines (i.e. tumor necrosis factor-α (TNF-α), interleukin-6 (IL-6), and IL-1β) in serum were assessed with relevant enzyme-linked immunosorbent assay (ELISA) kits (Biosource International Inc., Sunnyvale, Calif., USA), based on the manufacturer's instructions.

[4] = system: MPO; assay: Bleomycin-induced pulmonary fibrosis in mice: lung myeloperoxidase (MPO) assay; details: compared with BLM group, p<0.001
Description: as §1
The pulmonary MPO activity was a reliable index for estimating the infiltration of inflammatory cells in lungs. The lung tissues were homogenized and the MPO levels were detected with the kits according to manufacturer's instruction.

[5] = 25 mg/kg intragastric daily for 21 days after BLM
[6] = 50 mg/kg intragastric daily for 21 days after BLM

`C=C1C(=O)O[C@H]2/C=C(\C)CC3C=C(CC/C=C(\C)CC[C@H]12)C(=O)O3` (stereo partly shown) [AR100-DS1, Ovatodiolide] was tested, and the “necrosis and inflammatory infiltrating cells in the kidney tissue (H&E)” value [1] was “significantly improved necrosis and inflammatory infiltrating cells in the kidney tissue”, the Final body mass [2, 5] was 37.33 ± 0.25 g and the Pulmonary mass [2, 5] was 0.52 ± 0.02 g. For the same molecule, the Final body mass [2, 6] was 39.12 ± 0.30 g, the Pulmonary mass [2, 6] was 0.39 ± 0.01 g and the “TNF-α, IL-1β, IL-6 and TGF-β production” value [3] was “improved TNF-α, IL-1β, IL-6 and TGF-β production”. For the same molecule, the “lung MPO activity” value [4] was “evidently suppressed the MPO activities”.
